# Data: US20170368148A1, “USES OF A PTHrP ANALOGUE IN REDUCING FRACTURE RISK” (RADIUS HEALTH, INC., priority 2015, published 2017)
# Tested on: postmenopausal women with osteoporosis
# Assay: ACTIVE phase 3 trial: fracture rates and fracture risk reduction, 18 months
# Type: in vivo, human
# Conditions: abaloparatide 80 μg or teriparatide 20 μg daily SC
# Procedure: The ACTIVE phase 3 fracture prevention trial was conducted for abaloparatide in postmenopausal women with osteoporosis who were otherwise healthy. The enrolled subjects were treated with 80 micrograms (μg) of abaloparatide, a matching placebo, or the approved daily dose of 20 μg of teriparatide for 18 months. The ACTIVE trial evaluated fracture rates, fracture risks, BMD, and bone turnover biomarkers (e.g., CTX and P1NP) in all patient groups.
# Fracture risk reduction and hazard ratio (HR) were derived from Kaplan-Meier (KM) curve.
# The ACTIVE pivotal Phase 3 fracture prevention trial for the PTHrP analogue abaloparatide, Study BA058-05-003 (see ClinicalTrials.gov), was a randomized, double-blind, placebo-controlled trial in postmenopausal osteoporotic women randomized to receive daily doses of one of the following for 18 months: 80 micrograms (μg) of abaloparatide; a matching placebo; or the approved daily dose of 20 μg of teriparatide. Treatment with abaloparatide at a daily dose of 80 μg or placebo remained blinded to all parties throughout the study. Teriparatide used was a proprietary prefilled drug and device combination that could not be repackaged. Therefore, its identity could not be blinded to treating physicians and patients once use began. Study medication was self-administered daily by subcutaneous injection for a maximum of 18 months. All enrolled patients also received calcium and vitamin D supplementation from the time of enrollment until the end of the treatment period. It was recommended to patients that they also continue these supplements through the one-month follow-up period.
# The trial completed enrollment in March 2013 with 2,463 patients at 28 medical centers in 10 countries in the United States, Europe, Latin America, and Asia. The baseline characteristics of the selected patients are detailed in Table 3 below.
# The study enrolled otherwise healthy ambulatory women aged 49 to 86 (inclusive) who had been postmenopausal for at least five years, met the study entry criteria, and had provided written informed consent. […] All patients were to be in good general health as determined by medical history, physical examination (including vital signs), and clinical laboratory testing. This study population contained a patient population reflective of the type of severe osteoporosis patients that specialists would be expected to treat in their practices.
# As set forth in the ACTIVE protocol, the primary efficacy endpoint was the number of patients treated with abaloparatide with incident vertebral fractures at the end of treatment as compared to those who received placebo. The pre-specified secondary efficacy parameters included, among other endpoints, reduction in the incidence/risk of non-vertebral fractures; changes in BMD of the spine, hip, and femoral neck from baseline to end of treatment as assessed by DXA and as compared to teriparatide; and the number of hypercalcemic events in abaloparatide treated patients when compared to teriparatide at end of treatment.
structure (smiles),measurement,setting,value
"CC[C@H](C)[C@H](NC(=O)[C@H](CCC(=O)O)NC(=O)[C@H](CO)NC(=O)[C@@H](NC(=O)[C@@H](N)CO)C(C)C)C(=O)N[C@@H](CCC(N)=O)C(=O)N[C@@H](CC(C)C)C(=O)N[C@@H](CCSC)C(=O)N[C@@H](Cc1cnc[nH]1)C(=O)N[C@@H](CC(N)=O)C(=O)N[C@@H](CC(C)C)C(=O)NCC(=O)N[C@@H](CCCCN)C(=O)N[C@@H](Cc1cnc[nH]1)C(=O)N[C@@H](CC(C)C)C(=O)N[C@@H](CC(N)=O)C(=O)N[C@@H](CO)C(=O)N[C@@H](CCSC)C(=O)N[C@@H](CCC(=O)O)C(=O)N[C@@H](CCCN=C(N)N)C(=O)N[C@H](C(=O)N[C@@H](CCC(=O)O)C(=O)N[C@@H](Cc1c[nH]c2ccccc12)C(=O)N[C@@H](CC(C)C)C(=O)N[C@@H](CCCN=C(N)N)C(=O)N[C@@H](CCCCN)C(=O)N[C@@H](CCCCN)C(=O)N[C@@H](CC(C)C)C(=O)N[C@@H](CCC(N)=O)C(=O)N[C@@H](CC(=O)O)C(=O)N[C@H](C(=O)N[C@@H](Cc1cnc[nH]1)C(=O)N[C@@H](CC(N)=O)C(=O)N[C@@H](Cc1ccccc1)C(=O)O)C(C)C)C(C)C [teriparatide, hPTH(1-34)]","Fracture Rate, incident clinical fractures",,4.3%
same,"Fracture Rate, incident non-vertebral fractures",,2.9%
same,"Fracture Rate, major osteoporotic fractures",,2.8%
same,"Fracture Rate, wrist",,2.1%
same,"Fracture Risk Reduction v. PBO, incident clinical fractures",,29%
same,"Fracture Risk Reduction v. PBO, incident non-vertebral fractures",,28%
same,"Fracture Risk Reduction v. PBO, major osteoporotic fractures",,33%
same,"Fracture Risk Reduction v. PBO, wrist",,−13%
same,"Fracture rate, new vertebral fractures (excluding worsening)",,0.84%
same,Reduction of new vertebral fractures (excluding worsening) as compared to placebo,,80%
same,"Fracture Risk Reduction v. PBO, incident clinical fractures",listed as TPTD,29%
same,"Fracture Risk Reduction v. PBO, incident non-vertebral fractures",listed as TPTD,28%
same,"Fracture Risk Reduction v. PBO, major osteoporotic fractures",listed as TPTD,33%
same,"Fracture Risk Reduction v. PBO, incident non-vertebral fractures",listed as Teriparatide,28%
